The values below come from PMC9774446, “Antifungal and Anti-Inflammatory Activities of PS1-2 Peptide against Fluconazole-Resistant Candida albicans” (Antibiotics, 2022).

≈ marks a conversion by molar mass, not a printed value. Read-outs that look alike come from different tables or passages of the source. No end group written: not given here.

Data set [1] relates to C. albicans CCARM 14007-infected mouse lung. In kind it is in vivo, BALB/c mice. The text has this:
Animal study was approved by the Institutional Animal Care and Use Committee (IACUC) in Sunchon National University, South Korea (SCNU IACUC-2019-10). […] The mice anesthetized by inhalation of isoflurane (5%: induction, 2%: maintenance) in pure oxygen were intratracheally instilled with C. albicans cells. One hour after exposure, each peptide sample was intratracheally administered at the indicated dose, and the mice were monitored for signs of morbidity for 6 days. The lungs of mice euthanized by CO2 inhalation were excised and fixed in 4% paraformaldehyde. The fixed tissues were dehydrated using a series of ethanol solutions (50–100%) and embedded in paraffin. Paraffin-embedded tissues were sectioned at a thickness of 5 µm (Leica microtome, Deerfield, IL, USA), and the histopathology of the lung tissues was performed using alcian blue without/with eosin, and hematoxylin and eosin (H&E) staining.
TNF-α and NO production levels in blood collected from mouse hearts were determined using mouse anti-TNF-α microplate ELISA kit (R&D Systems, Minneapolis, MN, USA) and Griess reagent kit (Invitrogen, Carlsbad, CA, USA), respectively, followed by the manufacturer’s instructions.

The conditions of data set [2]: cited from earlier work. The method, then: Alterations in the killing kinetic pattern under low salt (SP) and high salt (PBS) conditions can predict the interaction and mode of action of peptides on yeast. Because propidium (PI) dye can stain the live cells only temporarily, it will be released ... || To investigate the proteolytic stability of the peptides, the peptide solutions were pre-treated with trypsin for 40 min and added to C. albicans cells. After 24 h of incubation, cells were spread on agar plates (Figure 4).

In data set [3] the test system is Candida albicans CCARM 14007 (fluconazole-resistant strain). Nature of the data set: microbe, parasite or virus in culture. In kind it is cell-based. The text has this:
[…] The lowest drug concentration at which no more than one colony was visible on the agar plate, was defined as a minimum fungicidal concentration (MFC).

The subject of data set [4] is C. albicans CCARM 14007. The note with it: CCARM 14007, pH 7.2. The method, then: C. albicans CCARM 14007 cells grown to the mid-log phase at 28 °C were suspended in 10 mM sodium phosphate (pH 7.2) buffer or PBS (pH 7.2) buffer with 10% YPD media at a density of 5 × 10^5 cells/mL. […] The cells were analyzed by fluorescence-activated cell sorting (FACS) system (Attune NxT acoustic focusing cytometer).

The test system of data set [5] is RAW 264.7 cells stimulated with C. albicans CCARM 14007. Nature of the data set: Anti-inflammatory assay in co-culture of RAW 264.7 and C. albicans. In kind it is cell-based, murine. The note with it: fluconazole 128 µM or PS1-2 32 µM, 24 h. The method, then: RAW 264.7 cells were cultured in DMEM supplemented with 10% FBS, 1% penicillin/streptomycin, and GlutaMax at 5% CO2 at 37 °C. The RAW 264.7 cells (2 × 10^5 cells/mL) suspended with RPMI-1640 medium were seeded into 12-well plates and incubated for 24 h. […] After 24 h incubation, cells were washed and harvested in PBS. A total of 1000 µL of blocking solution (5% bovine serum albumin with PBS) was added to each sample, incubated at 25 °C for 30 min, removed by centrifugation at 1000× g, and then incubated with the primary antibody (anti-TLR2, or anti-TNF-α; Abcam, Cambridge, UK, 1:200 dilution) for 1 h. The cells were washed with PBS and incubated with a secondary antibody (fluorescein isothiocyanate-conjugated goat anti-mouse IgG, 1:500 dilution; Santa Cruz Biotechnology) for 1 h. Cells expressing TLR2 were measured using an Attune NxT acoustic focusing cytometer. TNF-α expression was visualized using a confocal laser-scanning microscope (CLSM, A1R HD 25, Nikon, Tokyo, Japan).

The test system of data set [6] is C. albicans KCTC 7270. Nature of the data set: Drug-resistance assay (MFC over six passages). In kind it is cell-based. The note with it: Candida albicans. The method, then: To investigate the induction of drug resistance, C. albicans KCTC 7270 cells were prepared as for antifungal assay described above, at concentrations ranging from 1 to 128 μM. After 24 h incubation, MFCs were determined by the above method, and the surviving cells at half MFCs of each sample were treated with the diluted samples, repeating the process six times.

Broadly, the MFC is the smallest concentration meeting the test's criterion for killing the fungus. As to KWYKKWYKKWYK-NH2 [PS1-2], the “lung histology of non-infected mice (in words)” value in data set [1] (mouse, in vivo, 2 mg/kg) is “did not induce inflammation”. In addition, in data set [2], the “toxicity / cytotoxicity (in words)” value is given as “significantly lower than that of PS1-6”. For the same molecule, the MFC in data set [3] (CCARM 14007, 24 h, pH 6) was 32 µM; in data set [3] (CCARM 14007, 24 h, pH 7.2), 32 µM. Also, in data set [4], the “cells killed (PI-positive cells)” value is 87%.
Consider `OC(Cn1cncn1)(Cn1cncn1)c1ccc(F)cc1F` [Fluconazole, fluconazole], for which, in data set [5] (CLSM), the “TNF-α expression (in words)” value was “Overexpression of TNF-α”. Further, in data set [5] (with C. albicans), the “macrophage morphology (in words)” value was “Lamellipodia extension and spreading of cells”. Further, in data set [1] (C. albicans-infected mice, 2 mg/kg intratracheal 1 h after infection, 6 days, ELISA), the “inhibition of TNF-α secretion in whole blood serum” value is given as “approximately 65%”. Besides, the “NO production in whole blood serum (in words)” value in data set [1] (C. albicans-infected mice, 2 mg/kg intratracheal 1 h after infection, 6 days, Griess reagent) is reported as “did not inhibit NO production”. For the same molecule, the “lung histology of infected mice (in words)” value in data set [1] (C. albicans-infected mice, 2 mg/kg intratracheal, H&E and alcian blue staining) is “an increase in the release of mucins”. The minimum fungicidal concentration (MFC) in data set [6] (KCTC7270, read-out: MFC after six passages, 28 °C, surviving cells at half MFC re-treated each passage) is 2050 µM (≈ 627 µg/mL); in data set [6] (KCTC7270, read-out: MFC after six passages, 37 °C, surviving cells at half MFC re-treated each passage), 4100 µM (≈ 1250 µg/mL); in data set [6] (KCTC7270, read-out: MFC at first passage, 28 °C, drug-sensitive C. albicans KCTC 7270), 128 µM (≈ 39.2 µg/mL); in data set [6] (KCTC7270, read-out: MFC at first passage, 37 °C, drug-sensitive C. albicans KCTC 7270) it was 128 µM (≈ 39.2 µg/mL); in data set [3] (28 °C, 6 mM CaCl2 (pH 5.5), 24 h), above 128 µM; in data set [3] (28 °C, 6 mM MgCl2 (pH 5.5), 24 h), above 128 µM. In addition, the minimum fungicidal concentration (MFC) in data set [3] (28 °C, 24 mM KCl (pH 5.5), 24 h) is above 128 µM; in data set [3] (28 °C, pH 5.5, 10 mM sodium phosphate buffer containing 10% media, 24 h), above 128 µM; in data set [3] (28 °C, pH 6.0, 10 mM sodium phosphate buffer containing 10% media, 24 h) it was above 128 µM; in data set [3] (28 °C, pH 7.2, 10 mM sodium phosphate buffer containing 10% media, 24 h) it was above 128 µM; in data set [3] (37 °C, 6 mM CaCl2 (pH 5.5), 24 h), above 128 µM; in data set [3] (37 °C, 6 mM MgCl2 (pH 5.5), 24 h), above 128 µM. Also, the MFC in data set [3] (37 °C, 24 mM KCl (pH 5.5), 24 h) was above 128 µM; in data set [3] (37 °C, 150 mM NaCl (pH 5.5), 24 h), above 128 µM; in data set [3] (37 °C, pH 5.5, 10 mM sodium phosphate buffer containing 10% media, 24 h), above 128 µM; in data set [3] (Candida albicans, CCARM14007, 24 h, pH 5.5), above 128 µM; in data set [3] (Candida albicans, CCARM14007, 24 h, pH 6) it was above 128 µM; in data set [3] (Candida albicans, CCARM14007, 24 h, pH 7.2) it was above 128 µM.
Take KWLKKWLKKWLK-NH2 [PS1-6]: the “toxicity / cytotoxicity (in words)” value in data set [2] is “significant toxicity”. The MFC in data set [3] (CCARM 14007, 24 h, pH 6) was found to be 16 µM; in data set [3] (CCARM 14007, 24 h, pH 7.2) it was 16 µM.
With RWYRRWYRRWYR-NH2 [PS1-5], the minimum fungicidal concentration (MFC) in data set [3] (CCARM 14007, 24 h, pH 6) worked out at 16 µM; in data set [3] (CCARM 14007, 24 h, pH 7.2), 32 µM.
